Source: US11779600B2, “Methods of treating or preventing alzheimer's disease and associated conditions” (CEDARS-SINAI MEDICAL CENTER, priority 2016, dated 2023)

System: 6E10+-Aβ plaque
Test: 6E10+-Aβ plaque burden in ADtg mouse brain sections
Type: in vivo
Details: same brain sections (FIG. 11C)
Description: ADtg mice (10 months old) received subcutaneous injections of GA [also known as Cop-1 and Copaxone®; 100 μg in phosphate-buffered saline (PBS)] or PBS alone (control group) twice a week for 1 week and then once a week for 8 weeks. For evaluation of innate immune infiltration to the brain by flow cytometry, 10-month-old ADtg mice received subcutaneous injections of GA ([…] in PBS) or PBS alone twice a week for 1 week and then once a week for 3 weeks. At the end of the study, all mice were anaesthetized and then perfused with ice-cold PBS with 0.5 mM EDTA, after which their organs were collected and analyzed or fixed in 2.5% paraformaldehyde (Sigma-Aldrich), and cryoprotected with 30% sucrose for further histological analysis. CD115^+ monocytes from mice donors were isolated as previously reported (Koronyo et al., Brain: a journal of neurology 2015,138:2399-2422). […] For microscopic analysis, we used a Carl Zeiss Axio Imager Z1 fluorescence microscope equipped with ApoTome (Carl Zeiss MicroImaging, Inc.). […] The number and area (μm^2) of OPN+ cells, Iba1^+CD45^hi cells, GFAP^+ cells, Thio-S^+ amyloid-βplaques and 4G8^+ amyloid-βplaques were determined by examining four to six coronal sections per mouse at 150-μm intervals over an area covering both the hippocampal and cortical (including entorhinal and cingulate cortex) regions. […]

glatiramer acetate [GA]
6E10+-Aβ plaque burden compared with PBS controls: substantial reduction
